# Test system: LRP cluster II
# Assay: SPR binding of LRP cluster II to immobilized light chains (FVIII, FVa, FVIII/FV chimera)
# Settings: LRP cluster II 100 nM; immobilized light chain
# Experimental: FIG. 3. Binding of LRP cluster II to immobilized FVa light chain. […] Response is indicated as Resonance Units (RU) and is corrected for nonspecific binding, which was less than 5% relative to coated channels.
# FIG. 6. Binding of LRP cluster II to the FVIII/FV^1811-1818 light chain chimera. ScFv EL14 at a CM5 sensor chip (67 fmol/mm^2) was incubated with either the recombinant wild-type FVIII light chain or the recombinant FVIII/FV^1811-1818 chimera till a density of 20 fmol/mm^2, in 150 mM NaCl, 50 mM Tris (pH 7.4). […] Bound LRP cluster II is expressed as the amount associated after 2 min.
# The kinetics of protein interactions was determined by surface plasmon resonance (SPR) analysis, employing a BIAcore™2000 biosensor system (Biacore AS, Uppsala, Sweden). […] Association of analyte was assessed in 150 mM NaCl, 2 mM CaCl2, 0.005% (v/v) Tween® 20, and 20 mM Hepes (pH 7.4) for 2 min, at a flow rate of 20 μl/min at 25° C. […] The association (kon) and dissociation (koff) rate constants were determined by using the BIAevaluation software 3.1 (Biacore AB, Uppsala, Sweden). […] Equilibrium dissociation constants (kd) were calculated from the ratio koff/kon. […]
# Chain of LRP cluster II (Q07954 803-1182 limits assumed): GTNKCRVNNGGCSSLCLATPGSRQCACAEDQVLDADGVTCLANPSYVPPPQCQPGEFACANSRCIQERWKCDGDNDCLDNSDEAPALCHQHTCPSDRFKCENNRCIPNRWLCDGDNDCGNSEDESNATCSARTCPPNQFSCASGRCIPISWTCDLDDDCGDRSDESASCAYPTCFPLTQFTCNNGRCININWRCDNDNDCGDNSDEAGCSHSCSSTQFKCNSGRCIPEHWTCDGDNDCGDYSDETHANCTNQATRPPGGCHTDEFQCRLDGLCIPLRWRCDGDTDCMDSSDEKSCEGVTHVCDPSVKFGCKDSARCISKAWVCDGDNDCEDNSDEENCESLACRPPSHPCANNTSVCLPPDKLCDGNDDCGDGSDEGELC
substance,measurement,value
FVa light chain: light chain of thrombin-activated human Factor V purified from plasma,Binding to LRP cluster II,did not interact

# From US8586538B2, “Method of treating a patient suffering from a bleeding disorder comprising administering an antibody against the A3-C1 of FVIII” (Stichting Sanquin Bloedvoorziening, priority 2002, dated 2013)
